Reference: ChEMBL document CHEMBL1201862, “PubChem BioAssay data set” (2004)
Values belong to the compound of their own block, whether it stands above or below them. The source made the active and inactive calls.

Legend:
BJ [1] = experiment: BJ-TERT fibroblast viability loss – cell-based, RAS-independent, luminescence, dose response (AID 1933); assay type: functional; settings: Homo sapiens
BJ [2] = experiment: cells; assay type: functional, cell-based; settings: Homo sapiens
[3] = molecular target: Luciferin 4-monooxygenase (Photinus pyralis, UniProt P08659); experiment: inhibition of purified Photinus pyralis luciferase – biochemical, luminescence, dose response (AID 1891)
[4] = Luminescence Cell-Based Dose Confirmation HTS to Identify Inhibitors of Platelet Dense Granule Release. [Related pubchem assays: 1663 (Primary HTS), 1678 (Summary of Project)]; assay type: functional
BJ [5] = experiment: BJ-TERT-LT-ST fibroblast viability loss – cell-based, RAS-independent, luminescence, dose response (AID 1935); assay type: functional; settings: Homo sapiens;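 note: BJ fibroblasts immortalized with TERT plus LT and ST oncogenes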
[6] = DRD fibroblast viability loss – cell-based, non-viral oncogenic, luminescence, dose response (AID 1934); assay type: functional; settings: Homo sapiens
[7] = HEK-293T viability loss after treatment – luminescence, T-cell screen hits, cytotoxicity control for TCR NF-kB inhibitor project, dose response (AID 489026); assay type: functional, cell-based;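 note: cells exposed to compound about 14 hours before the viability readout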
[8] = blockers of HIV-1 envelope-mediated cell-cell fusion – cherry-pick, dose response (AID 652057); assay type: functional, cell-based
[9] = viability loss in CEM21 cells – cell-based, CellTiter-Glo luminescence, cherry-picked, cytotoxicity control for viral fusion inhibitor project, dose response (AID 652042); assay type: functional;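 note: potency for signal decrease meaning cytotoxicity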
[10] = blockers of HIV-1 ZM109 envelope-driven cell-cell fusion – HeLa effector, CEM target cells, luciferase, cherry-pick, dose response (AID 652058); assay type: functional, cell-based;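 note: luciferase signal from HIV-1 Env mediated cell-cell fusion of effector and target cells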
Paired box protein Pax-8 = Paired box protein Pax-8 (Homo sapiens, UniProt Q06710); experiment: PAX8 transcriptional activity inhibition in RMG-I – RMG-I cells, luciferase, cherry-pick, dose response (AID 687027); assay type: functional, cell-based;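 note: luciferase reporter driven by Pax8 target thyroperoxidase promoter measured by SteadyGlo luminescence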
[11] = off-target signal loss in HeLa-CEM21 co-culture – HeLa F-luc CTL cells, cherry-picked, counter-screen for HIV-1 Env fusion inhibitor project, dose response (AID 652040); assay type: functional, cell-based;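 note: potency for signal decrease marking cytotoxic or nonspecific inhibition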
[12] = HIV-1 AD8 envelope cell-cell fusion blockers – cherry-pick, dose response (AID 652062); assay type: functional, cell-based;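 note: luciferase signal from cell-cell fusion driven by HIV-1 clade B AD8 Env; potency is for inhibitors of fusion seen as a drop in luminescence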
[13] = general cell-killing toxicity readout – plate reader, dry powder samples, cytotoxicity control for PAX8 inhibitor project, dose response (AID 743021); assay type: functional, cell-based
[14] = molecular target: T1, Short transient receptor potential channel 4 (Mus musculus, UniProt Q9QUQ5); experiment: calcium entry via TRPC4 opening agents – cell-based, HEK293 TRPC4/mu-opioid, Fluo-4 calcium, dose response (AID 434937); assay type: functional
T1 sequence (Q9QUQ5 whole entry): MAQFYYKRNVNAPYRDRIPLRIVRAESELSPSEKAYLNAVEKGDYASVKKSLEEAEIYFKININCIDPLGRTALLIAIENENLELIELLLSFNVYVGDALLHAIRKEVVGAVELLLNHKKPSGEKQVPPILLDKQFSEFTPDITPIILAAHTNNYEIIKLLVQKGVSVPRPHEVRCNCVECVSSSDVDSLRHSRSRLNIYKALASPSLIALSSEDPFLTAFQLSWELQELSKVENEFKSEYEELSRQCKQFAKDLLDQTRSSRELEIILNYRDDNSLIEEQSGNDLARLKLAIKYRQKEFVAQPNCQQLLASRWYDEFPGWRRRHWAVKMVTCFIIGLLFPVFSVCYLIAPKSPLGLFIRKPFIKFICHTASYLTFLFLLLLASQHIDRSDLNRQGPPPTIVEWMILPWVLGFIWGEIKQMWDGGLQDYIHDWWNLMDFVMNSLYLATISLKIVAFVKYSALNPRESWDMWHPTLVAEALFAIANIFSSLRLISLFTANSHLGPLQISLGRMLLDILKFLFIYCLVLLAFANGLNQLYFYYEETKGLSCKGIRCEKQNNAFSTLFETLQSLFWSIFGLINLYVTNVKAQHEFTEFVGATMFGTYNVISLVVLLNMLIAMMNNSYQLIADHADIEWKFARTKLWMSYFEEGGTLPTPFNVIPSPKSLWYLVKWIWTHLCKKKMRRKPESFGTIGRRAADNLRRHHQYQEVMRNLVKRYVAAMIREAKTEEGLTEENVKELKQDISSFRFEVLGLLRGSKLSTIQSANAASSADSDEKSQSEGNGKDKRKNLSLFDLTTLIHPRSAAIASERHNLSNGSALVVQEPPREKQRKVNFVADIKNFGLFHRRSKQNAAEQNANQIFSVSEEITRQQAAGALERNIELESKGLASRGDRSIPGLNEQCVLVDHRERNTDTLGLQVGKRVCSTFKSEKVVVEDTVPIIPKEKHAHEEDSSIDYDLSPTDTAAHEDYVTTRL

Beta-galactosidase = Beta-galactosidase (Escherichia coli, UniProt Q8VNN2); experiment: Dose response counterscreen for EBI2 assay utilizing the enzyme, b-galactosidase.; assay type: functional
Coagulation factor XII = molecular target: T2, Coagulation factor XII (Homo sapiens, UniProt P00748); assay type: functional;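 note: activated factor XIIa alpha cleaving a fluorogenic AMC peptide substrate; inhibitor potency from loss of enzyme activity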
T2 sequence (P00748 whole entry): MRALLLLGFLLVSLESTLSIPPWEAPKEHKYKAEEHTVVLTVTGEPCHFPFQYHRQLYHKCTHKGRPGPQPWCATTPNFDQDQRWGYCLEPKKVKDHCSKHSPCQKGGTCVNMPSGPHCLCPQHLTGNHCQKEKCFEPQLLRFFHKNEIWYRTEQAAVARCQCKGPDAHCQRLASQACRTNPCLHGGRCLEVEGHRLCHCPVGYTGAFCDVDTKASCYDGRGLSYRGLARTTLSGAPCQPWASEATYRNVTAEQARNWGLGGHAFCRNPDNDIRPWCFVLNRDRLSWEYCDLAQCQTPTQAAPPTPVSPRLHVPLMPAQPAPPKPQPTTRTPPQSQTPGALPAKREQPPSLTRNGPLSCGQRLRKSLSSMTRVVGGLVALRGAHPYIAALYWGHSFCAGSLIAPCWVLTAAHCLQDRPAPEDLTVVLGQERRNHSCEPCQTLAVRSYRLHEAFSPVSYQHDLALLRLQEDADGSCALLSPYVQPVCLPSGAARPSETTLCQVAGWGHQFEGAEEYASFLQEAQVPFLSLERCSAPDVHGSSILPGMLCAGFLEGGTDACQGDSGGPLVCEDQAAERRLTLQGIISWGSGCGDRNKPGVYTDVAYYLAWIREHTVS

[15] = NIH-3T3 fibroblast cytotoxicity, dose response, cytotoxicity control, cell-based, fluorescence, Alamar Blue, secondary assay (AID 2327); assay type: functional;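 note: NIH-3T3 mouse fibroblasts cultured with fluconazole at 8 µg/mL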
[16] = fluconazole-exposed Candida albicans growth modulators – fluorescence, retest, confirmation (AID 2467); assay type: functional, cell-based
[17] = Trypanosoma cruzi growth suppression in host cells – NIH3T3 host cells, beta-gal luminescence, confirmation (AID 2044); assay type: functional, cell-based;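 note: intracellular parasites grown in NIH/3T3 mouse fibroblasts as host cells; luminescent beta-galactosidase reporter signal from transgenic T. cruzi replicating inside host cells; inhibitors lower the luminescence signal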
[18] = NIH3T3 cell viability loss – ATP luminescence, mouse fibroblasts, counter-screen, dose response (AID 2010); assay type: functional, cell-based;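 note: cells exposed to compound for about 90 hours before reading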
[19] = molecular target: DNA dC->dU-editing enzyme APOBEC-3A (Homo sapiens, UniProt P31941); experiment: Dose Response confirmation of small molecule APOBEC3A DNA Deaminase Inhibitors via a fluorescence-based single-stranded DNA deaminase assay. [Related pubchem assays (depositor defined):AID493011, AID493024]; assay type: functional
[20] = molecular target: DNA dC->dU-editing enzyme APOBEC-3G (Homo sapiens, UniProt Q9HC16); assay type: functional;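 note: Dose-response counterscreen measuring inhibition of APOBEC3G DNA deaminase activity, run while confirming APOBEC3A inhibitors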
[21] = molecular target: T3, Carboxy-terminal domain RNA polymerase II polypeptide A small phosphatase 1 (Homo sapiens, UniProt Q9GZU7); experiment: CTDSP1 inhibitors, concentration-response, biochemical, absorbance readout, ultra-high-throughput screen actives (AID 540297); assay type: functional
T3 sequence (Q9GZU7 whole entry): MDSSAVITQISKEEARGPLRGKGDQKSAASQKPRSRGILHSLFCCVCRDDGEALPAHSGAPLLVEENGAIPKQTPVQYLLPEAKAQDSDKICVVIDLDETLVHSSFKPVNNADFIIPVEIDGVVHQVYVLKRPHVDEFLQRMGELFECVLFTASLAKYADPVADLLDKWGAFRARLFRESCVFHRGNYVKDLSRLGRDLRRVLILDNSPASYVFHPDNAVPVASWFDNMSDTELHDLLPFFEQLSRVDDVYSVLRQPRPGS

[22] = viability of PTEN-deleted HCT116 cells – cell-based, HCT116 PTEN knockout, dose response (AID 1047); assay type: functional;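 note: HCT116 colon tumor cells with PTEN knocked out; cells exposed to compound for 60 hours before readout; potency for loss of cell viability measured by luminescence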
[23] = viability of HCT116 lacking mutant beta-catenin – cell-based, human colon tumor, dose response (AID 1045); assay type: functional;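 note: HCT116 colon tumor cells with beta catenin knocked out; cells exposed to compound for 60 hours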
[24] = molecular target: DNA damage-inducible transcript 3 protein (Mus musculus, UniProt P35639); assay type: functional, Cricetulus griseus
[25] = molecular target: Eukaryotic translation initiation factor 4H (Homo sapiens, UniProt Q15056); experiment: eIF4H binding inhibition – biochemical, uHTS, fluorescence polarization, translation initiation inhibitor project, primary screen (AID 2012)
[26] = molecular target: Polyadenylate-binding protein 1 (Homo sapiens, UniProt P11940); experiment: blockers of PABP interaction with poly(A) – biochemical, fluorescence polarization, […] (AID 2014)
Chain of Polyadenylate-binding protein 1 (P11940 whole entry): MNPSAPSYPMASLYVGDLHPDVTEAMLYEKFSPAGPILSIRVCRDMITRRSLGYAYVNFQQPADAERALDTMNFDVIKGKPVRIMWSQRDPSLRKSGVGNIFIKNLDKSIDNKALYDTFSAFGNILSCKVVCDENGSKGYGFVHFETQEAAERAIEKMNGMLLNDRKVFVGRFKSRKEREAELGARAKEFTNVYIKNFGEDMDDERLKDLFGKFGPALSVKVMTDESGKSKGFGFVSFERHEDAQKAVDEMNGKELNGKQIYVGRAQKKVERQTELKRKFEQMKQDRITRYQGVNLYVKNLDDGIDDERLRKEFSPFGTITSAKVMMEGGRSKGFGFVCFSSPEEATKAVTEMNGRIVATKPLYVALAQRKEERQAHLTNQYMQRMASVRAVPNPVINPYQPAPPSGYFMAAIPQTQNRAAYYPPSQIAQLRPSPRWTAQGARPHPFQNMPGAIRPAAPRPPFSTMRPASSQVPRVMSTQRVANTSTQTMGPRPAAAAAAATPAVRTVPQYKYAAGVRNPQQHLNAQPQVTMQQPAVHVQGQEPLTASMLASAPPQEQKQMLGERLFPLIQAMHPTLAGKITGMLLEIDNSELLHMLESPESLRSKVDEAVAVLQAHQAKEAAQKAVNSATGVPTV

Chain of DNA damage-inducible transcript 3 protein (P35639 whole entry): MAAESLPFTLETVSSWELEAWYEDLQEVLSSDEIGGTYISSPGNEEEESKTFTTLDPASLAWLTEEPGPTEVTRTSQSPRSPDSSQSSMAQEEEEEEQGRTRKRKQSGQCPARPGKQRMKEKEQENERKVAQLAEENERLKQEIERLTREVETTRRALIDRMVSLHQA
Chain of DNA dC->dU-editing enzyme APOBEC-3G (Q9HC16 whole entry, the tested form may be a part): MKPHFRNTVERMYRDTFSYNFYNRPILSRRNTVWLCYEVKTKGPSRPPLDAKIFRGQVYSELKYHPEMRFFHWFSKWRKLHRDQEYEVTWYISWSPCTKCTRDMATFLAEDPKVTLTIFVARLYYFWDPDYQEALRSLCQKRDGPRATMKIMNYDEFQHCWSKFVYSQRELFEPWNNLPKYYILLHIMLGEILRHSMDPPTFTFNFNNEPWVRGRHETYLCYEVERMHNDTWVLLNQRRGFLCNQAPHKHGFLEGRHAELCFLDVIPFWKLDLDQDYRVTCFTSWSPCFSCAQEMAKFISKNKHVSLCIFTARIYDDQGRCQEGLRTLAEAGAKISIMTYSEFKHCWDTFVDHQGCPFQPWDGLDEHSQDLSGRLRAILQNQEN
Chain of DNA dC->dU-editing enzyme APOBEC-3A (P31941 whole entry): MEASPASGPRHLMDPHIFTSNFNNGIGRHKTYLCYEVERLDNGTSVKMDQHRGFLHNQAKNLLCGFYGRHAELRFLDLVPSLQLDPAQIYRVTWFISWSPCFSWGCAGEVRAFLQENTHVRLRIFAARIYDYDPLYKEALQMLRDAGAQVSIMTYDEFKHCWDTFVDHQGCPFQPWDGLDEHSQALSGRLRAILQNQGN
Chain of Luciferin 4-monooxygenase (P08659 whole entry): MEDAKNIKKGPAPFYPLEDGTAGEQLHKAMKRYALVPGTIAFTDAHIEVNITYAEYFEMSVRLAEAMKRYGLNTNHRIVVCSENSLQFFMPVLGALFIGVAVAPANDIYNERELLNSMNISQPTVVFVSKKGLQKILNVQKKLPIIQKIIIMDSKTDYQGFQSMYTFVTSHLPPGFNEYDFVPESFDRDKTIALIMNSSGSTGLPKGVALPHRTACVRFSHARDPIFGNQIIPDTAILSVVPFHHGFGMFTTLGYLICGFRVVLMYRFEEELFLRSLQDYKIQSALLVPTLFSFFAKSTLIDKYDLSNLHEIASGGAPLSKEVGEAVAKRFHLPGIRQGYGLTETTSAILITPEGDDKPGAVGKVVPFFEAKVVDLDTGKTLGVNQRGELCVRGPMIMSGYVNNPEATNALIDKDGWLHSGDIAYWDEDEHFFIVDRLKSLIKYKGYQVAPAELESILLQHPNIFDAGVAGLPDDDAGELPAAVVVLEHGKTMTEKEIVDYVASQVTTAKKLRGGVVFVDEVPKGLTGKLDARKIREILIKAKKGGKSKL
Chain of Beta-galactosidase (Q8VNN2 whole entry): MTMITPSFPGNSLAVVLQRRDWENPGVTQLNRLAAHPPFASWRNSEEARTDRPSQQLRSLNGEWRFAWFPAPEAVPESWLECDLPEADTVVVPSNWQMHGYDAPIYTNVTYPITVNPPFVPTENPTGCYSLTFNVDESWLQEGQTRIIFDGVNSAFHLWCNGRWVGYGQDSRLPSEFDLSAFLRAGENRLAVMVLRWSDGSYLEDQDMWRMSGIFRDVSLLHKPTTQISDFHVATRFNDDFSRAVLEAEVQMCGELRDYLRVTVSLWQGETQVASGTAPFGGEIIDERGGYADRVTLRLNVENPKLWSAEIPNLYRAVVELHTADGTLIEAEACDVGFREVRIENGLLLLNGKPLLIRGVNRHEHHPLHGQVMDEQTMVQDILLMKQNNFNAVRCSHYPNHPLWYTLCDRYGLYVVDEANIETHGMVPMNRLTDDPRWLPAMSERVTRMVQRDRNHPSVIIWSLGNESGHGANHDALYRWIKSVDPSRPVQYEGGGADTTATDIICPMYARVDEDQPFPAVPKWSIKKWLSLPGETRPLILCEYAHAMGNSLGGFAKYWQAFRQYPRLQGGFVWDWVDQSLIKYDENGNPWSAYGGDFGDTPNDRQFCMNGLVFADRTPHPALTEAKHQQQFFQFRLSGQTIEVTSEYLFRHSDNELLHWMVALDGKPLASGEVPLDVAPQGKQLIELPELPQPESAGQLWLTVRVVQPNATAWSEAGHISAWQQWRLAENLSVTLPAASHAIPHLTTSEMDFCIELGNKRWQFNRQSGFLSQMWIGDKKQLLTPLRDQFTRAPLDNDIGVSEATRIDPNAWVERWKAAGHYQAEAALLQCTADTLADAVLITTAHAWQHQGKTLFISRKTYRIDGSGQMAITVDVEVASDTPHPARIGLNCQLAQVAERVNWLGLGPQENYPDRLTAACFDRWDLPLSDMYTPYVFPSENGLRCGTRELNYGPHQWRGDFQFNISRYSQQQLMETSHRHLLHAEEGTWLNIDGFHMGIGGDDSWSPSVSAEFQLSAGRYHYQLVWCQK
Chain of Paired box protein Pax-8 (Q06710 whole entry, the tested form may be a part): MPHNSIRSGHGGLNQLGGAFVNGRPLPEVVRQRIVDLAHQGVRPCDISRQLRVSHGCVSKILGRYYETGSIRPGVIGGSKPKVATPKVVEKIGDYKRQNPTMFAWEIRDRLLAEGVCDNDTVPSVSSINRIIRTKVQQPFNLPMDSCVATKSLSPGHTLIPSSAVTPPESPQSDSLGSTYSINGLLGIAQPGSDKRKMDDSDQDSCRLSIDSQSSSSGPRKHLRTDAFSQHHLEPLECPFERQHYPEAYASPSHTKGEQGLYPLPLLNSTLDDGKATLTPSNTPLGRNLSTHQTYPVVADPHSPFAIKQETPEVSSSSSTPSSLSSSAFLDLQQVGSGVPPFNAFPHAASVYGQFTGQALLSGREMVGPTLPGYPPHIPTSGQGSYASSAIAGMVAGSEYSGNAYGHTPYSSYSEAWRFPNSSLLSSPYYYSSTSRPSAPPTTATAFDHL

Compound: O=C(O)c1ccc(N/N=C/c2ccc3c(c2)OCO3)cc1
EC50 (BJ [1]): 13.1 µM (active) | EC50 (BJ [2]): 8.37 µM (active) | EC50 [3]: < 0.088 µM (active) | EC50 [4]: < 0.088 µM (active) | EC50 (BJ [5]): 24.2 µM (active) | EC50 [6]: 8.19 µM (active) | IC50 [7]: > 80 µM (inactive) | AC50 [8]: 2.44 µM (active) | AC50 [9]: 36.6 µM (active) | AC50 [10]: 9.48 µM (active) | AC50 (Paired box protein Pax-8): 3.04 µM (active) | AC50 [11]: 4.15 µM (active) | AC50 [12]: 5.24 µM (active) | AC50 [13]: 27.7 µM (active)

EC50 [14]: 3.35 µM (active)
Compound: CN(C)CCNC(=O)c1scc2c1CCCC2

Compound: COc1ccc(Nc2nc(-c3sc(C)nc3C)cs2)cc1
IC50 [7]: 49.6 µM (inactive) | IC50 (Beta-galactosidase): > 80 µM (inactive)

EC50 [14]: 0.024 µM (active)
Compound: CCCn1ncc(CN2CCC(n3nccc3NC(=O)CCc3ccccc3)CC2)c1C

IC50 (Coagulation factor XII): > 50 µM (inactive)
Compound: CCn1c(SCC(=O)Nc2cccnc2Cl)nnc1-c1ccccc1

Compound: CC1(C)CC(N2CCCC2)=CC(=[N+]2CCCC2)C1
EC50 [15]: > 160 µM (inactive) | EC50 [16]: 2.7 µM (active) | EC50 [17]: 0.693 µM (active) | EC50 [18]: > 60 µM (not active) | IC50 [19]: 1.53 µM (active) | IC50 [20]: 1.47 µM (active) | IC50 [21]: 3.62 µM (active)

Compound: COc1ccc(OC)c2sc(NC(=O)c3ccc(Cl)s3)nc12
EC50 [22]: 11.8 µM (active) | EC50 [23]: 9.28 µM (active) | Absolute IC50 (CHOP) [24]: 10 µM

Compound: CCOC(=O)c1ccccc1NC(=O)Cn1c(-c2nonc2N)nc2ccccc21
IC50 [7]: > 80 µM (inactive)

Compound: CC(C)[N+](C)(C)CC#CC(O)(c1ccccc1)c1ccccc1
IC50 [25]: > 100 µM (inactive) | IC50 [26]: 9.63 µM (active) | IC50 [19]: 2.55 µM (active) | IC50 [20]: 2.49 µM (active)

EC50 [14]: 3.76 µM (active)
Compound: CN(CCc1ccccn1)C(=O)CC1C(=O)NCCN1Cc1ccc(-c2ccccc2)cc1 (configuration not stated)

IC50 (Coagulation factor XII): > 50 µM (inactive)
Compound: CCOC(=O)CNC(=O)Cc1ccc(OC)cc1

Compound: O=C(c1ccc(Cl)cc1)c1c[nH]c(C(=O)NNc2cccc(Cl)n2)c1
Absolute IC50 (CHOP) [24]: 10 µM
